Assay results from patent publication EP4252780A1, “BIOLOGICALLY ACTIVE MATERIAL CONJUGATE HAVING BIOTIN MOIETY, FATTY ACID MOIETY, OR COMBINATION THEREOF COUPLED THERETO” (priority 2020, dated 2022).
Non-standard residues stand in square brackets, D forms with d. No end group written: not given here. F14 = C20-Glu-EG2-EG2-MAL; B38 = not defined here; Aib = CC(C)(N)C(=O)O

Assay: body weight change after 2 weeks of subcutaneous administration in obese mouse model
Type: in vivo
Conditions: subcutaneous for 2 weeks, FIG. 10
Description: Conjugates 58 and 59 were subcutaneously administered for 2 weeks into an obese mouse model, then body weight changes were measured.

Substance	body weight compared to the untreated group
Conjugate 59: polypeptide SEQ ID NO 8; biotin moiety B38 at K12; fatty acid moiety F14 at C30 (H[Aib]QGTFTSDYSK(B38)YLDEQAAKEFVQWLMNTC(F14); reading uncertain)	substantially reduced

Assay: body weight reduction and feed intake over 24 hours after oral administration
Type: in vivo
Conditions: oral administration to mice

Substance	Weight loss (%) compared to untreated group
Conjugate 33: polypeptide SEQ ID NO 24; biotin moiety B38 at K1 (K(B38)CNTATCATQRLANFLVHSSNNFGPILPPTNVGSNTY; ends and bridges not checked)	-4.07 ± 1.30%
Conjugate 61: polypeptide SEQ ID NO 24; biotin moiety B38 at K1; fatty acid moiety F11 at K1 (K(B38)CNTATCATQRLANFLVHSSNNFGPILPPTNVGSNTY; ends and bridges not checked; also: fatty acid F11 also at K1, attachment order not given here)	-2.96 ± 4.22%
Polypeptide SEQ ID NO 24: amylin derivative KCNTATCATQRLANFLVHSSNNFGPILPPTNVGSNTY (Amylin derivative) [reference compound]	-2.63 ± 1.06%
Polypeptide SEQ ID NO 26: amylin derivative KCNTATCATQRLADFLLRHSSPNFGAIPSSTNVGSRTY (KCNTATCATQRLADFLRHSSPNFGAIPSSTNVGSRTY; Amylin derivative) [reference compound]	-3.13 ± 1.05%
Polypeptide SEQ ID NO 28: amylin derivative KCNTATCATQRLADFLLRHSSNNFGAIPSSTNVGSRTY (KCNTATCATQRLADFLRHSSNNFGAIPSSTNVGSRTY; Amylin derivative) [reference compound]	-1.11 ± 0.84%
Polypeptide SEQ ID NO 30: amylin derivative RCNTATCATQRLADFLLRHSSNNFGAIPSSTNVGSKTY (RCNTATCATQRLADFLRHSSNNFGAIPSSTNVGSKTY; Amylin derivative) [reference compound]	-1.17 ± 0.76%
